The source made the active and inactive calls. The rule behind the calls is not given here.
Key:
Rattus norvegicus [1] = assay: Anticonvulsant activity in pilocarpine-induced status epilepticus Sprague-Dawley rat model assessed as delay in motor seizure onset time at 100 mg/kg, ip administered 2 hrs prior to pilocarpine challenge; format: functional, organism-based
Rattus norvegicus [2] = assay: Toxicity in pilocarpine-induced status epilepticus Sprague-Dawley rat model assessed as loss of righting reflex at 100 mg/kg, ip administered 2 hrs prior to pilocarpine challenge measured within 10 mins and upto 4 hrs; format: organism-based; details: in vivo
Rattus norvegicus [3] = assay: Toxicity in pilocarpine-induced status epilepticus Sprague-Dawley rat model assessed as sedation at 100 mg/kg, ip administered 2 hrs prior to pilocarpine challenge; format: organism-based; details: in vivo
Rattus norvegicus [4] = assay: Anticonvulsant activity in pilocarpine-induced status epilepticus Sprague-Dawley rat model at 100 mg/kg, ip administered 2 hrs prior to pilocarpine challenge; format: functional, organism-based
Rattus norvegicus [5] = assay: Anticonvulsant activity in pilocarpine-induced status epilepticus Sprague-Dawley rat model assessed as survival rate at 100 mg/kg, ip administered 2 hrs prior to pilocarpine challenge (reference value: 53%); format: functional
Rattus norvegicus [6] = assay: Anticonvulsant activity in pilocarpine-induced status epilepticus Sprague-Dawley rat model assessed as motor seizure onset time at 100 mg/kg, ip administered 2 hrs prior to pilocarpine challenge (reference value: 6 mins); format: functional
Rattus norvegicus [7] = assay: Anticonvulsant activity in pilocarpine-induced status epilepticus Sprague-Dawley rat model assessed as recovered from seizure within 90 to 120 mins at 100 mg/kg, ip administered 2 hrs prior to pilocarpine challenge; format: functional, organism-based
Rattus norvegicus [8] = assay: Anticonvulsant activity in pilocarpine-induced status epilepticus Sprague-Dawley rat model assessed as decrease in progression of motor seizure at 100 mg/kg, ip administered 2 hrs prior to pilocarpine challenge; format: functional, organism-based
Rattus norvegicus [9] = assay: Anticonvulsant activity in pilocarpine-induced status epilepticus Sprague-Dawley rat model assessed as recovered from pre-stage of motor seizue within 30 mins at 100 mg/kg, ip administered 2 hrs prior to pilocarpine challenge; format: functional, organism-based

In the case of `O=C1OC2(C(=O)N(c3ccc(Cl)cc3)C(=O)N2c2ccccc2)c2ccccc21` (racemic), the Activity (Rattus norvegicus [1]) is reported as “Active”.

`O=C1OC2(C(=O)N(c3ccccc3)C(=O)N2c2ccccc2)c2ccccc21` (racemic) was tested, and the Activity (Rattus norvegicus [2]) was “Toxic” and the Activity (Rattus norvegicus [3]) was “Toxic”.

With `CCCN1C(=O)N(c2ccc(Cl)cc2)C(=O)C12OC(=O)c1ccccc12` (racemic) the Activity (Rattus norvegicus [4]) was “Active”.

For `CCCN1C(=O)N(c2ccccc2)C(=O)C12OC(=O)c1ccccc12` (racemic), the Activity (Rattus norvegicus [2]) was “Toxic” and the Activity (Rattus norvegicus [3]) was “Toxic”.

With `O=C1OC2(C(=O)N(c3ccc(Cl)cc3)C(=O)N2C2CC2)c2ccccc21` (racemic) the Activity (Rattus norvegicus [4]) was “Active”.

In the case of `O=C1NC(=O)C(c2ccccc2)(c2ccccc2)N1` [PHENYTOIN], the survival at 100 mg/kg (Rattus norvegicus [5]) is reported as 67% and the Time (Rattus norvegicus [6]) is reported as 12 min.

`CCCN1C(=O)N(c2ccc([N+](=O)[O-])cc2)C(=O)C12OC(=O)c1ccccc12` (racemic) was tested, and the Activity (Rattus norvegicus [4]) was “Active”, the Activity (Rattus norvegicus [7]) was “Active” and the Activity (Rattus norvegicus [1]) was “Active”.

`CCCN1C(=O)N(c2ccccc2CC)C(=O)C12OC(=O)c1ccccc12` (racemic) was tested, and the Activity (Rattus norvegicus [4]) was “Active”.

Work on `O=C1OC2(C(=O)N(c3ccc([N+](=O)[O-])cc3)C(=O)N2c2ccccc2)c2ccccc21` (racemic) yielded a Time (Rattus norvegicus [6]) of 104 min.

For `CCN1C(=O)N(c2ccc(OC)cc2OC)C(=O)C12OC(=O)c1ccccc12` (racemic), the Activity (Rattus norvegicus [8]) was “Active”, the Activity (Rattus norvegicus [4]) was “Active” and the Activity (Rattus norvegicus [9]) was “Active”. For the same molecule, the Activity (Rattus norvegicus [7]) was “Active” and the Activity (Rattus norvegicus [1]) was “Active”.

For `CCc1ccc(N2C(=O)N(C3CC3)C3(OC(=O)c4ccccc43)C2=O)cc1` (racemic), the Activity (Rattus norvegicus [1]) was “Active”.

For `CCCN1C(=O)N(c2ccc(CC)cc2)C(=O)C12OC(=O)c1ccccc12` (racemic), the Activity (Rattus norvegicus [1]) was “Active”.

For `O=C1OC2(C(=O)N(c3ccccc3)C(=O)N2C2CC2)c2ccccc21` (racemic), the Activity (Rattus norvegicus [2]) was “Toxic” and the Activity (Rattus norvegicus [3]) was “Toxic”.

With `CCc1cccc(CC)c1N1C(=O)N(CC)C2(OC(=O)c3ccccc32)C1=O` (racemic) the Activity (Rattus norvegicus [4]) was “Active”.

`O=C1OC2(C(=O)N(c3ccc([N+](=O)[O-])cc3)C(=O)N2C2CC2)c2ccccc21` (racemic) was tested, and the Activity (Rattus norvegicus [4]) was “Active” and the Activity (Rattus norvegicus [7]) was “Active”.

In the case of `CCN1C(=O)N(c2ccc([N+](=O)[O-])cc2)C(=O)C12OC(=O)c1ccccc12` (racemic), the Activity (Rattus norvegicus [4]) is reported as “Active” and the Activity (Rattus norvegicus [7]) is reported as “Active”.
